Values quoted from earlier work, collected in patent publication US20140302138A1, “EXTENDED RELEASE PHARMACEUTICAL COMPOSITIONS CONTAINING CARBAMAZEPINE” (priority 2011, published 2014).

Q: Which results are given for NC(=O)N1c2ccccc2C=Cc2ccccc21 [Carbamazepine, 5H-dibenzo[b,f]azepine-5-carboxamide]?
A: solubility in acetone (acetone): soluble; solubility in alcohol (alcohol): soluble; solubility in water (water): practically insoluble
